From patent US5610174A, “Use of α1A -selective adrenoceptor agonists for the treatment of urinary incontinence” (priority 1995, dated 1997) come the findings set out here.

Read-outs that look alike come from different tables or passages of the source.

One test has as its target T1, human α1A adrenoceptor (Homo sapiens, UniProt P25100).
T1 sequence (P25100 1-572): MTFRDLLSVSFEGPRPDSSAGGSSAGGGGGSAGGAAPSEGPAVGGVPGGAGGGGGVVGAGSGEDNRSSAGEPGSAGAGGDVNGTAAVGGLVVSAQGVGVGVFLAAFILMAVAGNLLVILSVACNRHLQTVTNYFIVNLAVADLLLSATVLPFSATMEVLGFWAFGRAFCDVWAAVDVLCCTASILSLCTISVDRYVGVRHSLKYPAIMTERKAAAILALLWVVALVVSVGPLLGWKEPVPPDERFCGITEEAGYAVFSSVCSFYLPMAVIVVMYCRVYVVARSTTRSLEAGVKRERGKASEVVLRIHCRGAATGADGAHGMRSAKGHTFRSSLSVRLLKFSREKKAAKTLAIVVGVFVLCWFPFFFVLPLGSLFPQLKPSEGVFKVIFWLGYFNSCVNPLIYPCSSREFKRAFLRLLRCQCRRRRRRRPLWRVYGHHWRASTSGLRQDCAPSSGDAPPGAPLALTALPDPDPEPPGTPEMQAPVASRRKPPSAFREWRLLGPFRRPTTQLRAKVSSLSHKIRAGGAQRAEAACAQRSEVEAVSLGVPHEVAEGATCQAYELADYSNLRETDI
In words: cell-based. In kind it is cell-based. The settings on record: for Emax: read-out: intrinsic activity (i.a.) α1A; for stimulation of inositol phosphate production, α1A: result in words. The method, then:
α1 -Adrenoceptor-Mediated Phosphoinositide Accumulation in Cultured Cell Lines
The agonist activity of test compounds was assayed by measuring their ability to generate phosphoinositide production in cells stably transfected with each of the three cloned human α1 -adrenoceptor subtypes. Cells were plated in 96-well plates and grown to confluence. The day before the assay the growth medium was changed to 100 μl of medium containing 1% serum and 0.5 μCi [^3 H] myo-inositol, and the plates were incubated overnight in a CO2 incubator (5% CO2 at 37° C.). Immediately before the assay, the medium was removed and replaced by 200 μl of PBS containing 10 mM LiCl, and the cells were equilibrated with the new medium for 20 min. During this interval cells were also equilibrated with the antagonist, added as 10 μl aliquot of a 20-fold concentrated solution in PBS.
The [^3 H] inositol-phosphate (IP) accumulation was started by adding 10 μl of a solution containing the agonist. To the first well 10 μl were added to measure basal accumulation, and 11 different concentrations of agonist were assayed in the following 11 wells of each plate row. All assays were performed in duplicate by repeating the same additions in two consecutive plate rows. The plates were incubated in a CO2 incubator for 1 hr. The reaction was terminated by adding 15 μl of 50% (v/v) trichloroacetic acid (TCA), followed by a 40 min incubation at 4° C.
After neutralizing TCA with 40 μl of 1 M Tris, the content of the wells was transferred to a Multiscreen HV filter plate (Millipore) containing Dowex AG1-X8 (200-400 mesh, formate form). The filter plates were prepared adding 200 μl of Dowex AG1-X8 suspension (50% v/v, water:resin) to each well. The filter plates were placed on a vacuum manifold to wash or eluted the resin bed. Each well was washed 2 times with 200 μl of water, followed by 2×200 μ of 5 mM sodium tetraborate/60 mM ammonium formate. The [3H] IPs were eluted into empty 96-well plates with 200 μl of 1.2 M ammonium formate/0.1 formic acid. The content of the wells was added to 3 mls of scintillation cocktail, and the radioactivity was determined by liquid scintillation counting.

The next test has as its target T2, human α1C adrenoceptor (Homo sapiens, UniProt P35348).
T2 sequence (P35348 1-466): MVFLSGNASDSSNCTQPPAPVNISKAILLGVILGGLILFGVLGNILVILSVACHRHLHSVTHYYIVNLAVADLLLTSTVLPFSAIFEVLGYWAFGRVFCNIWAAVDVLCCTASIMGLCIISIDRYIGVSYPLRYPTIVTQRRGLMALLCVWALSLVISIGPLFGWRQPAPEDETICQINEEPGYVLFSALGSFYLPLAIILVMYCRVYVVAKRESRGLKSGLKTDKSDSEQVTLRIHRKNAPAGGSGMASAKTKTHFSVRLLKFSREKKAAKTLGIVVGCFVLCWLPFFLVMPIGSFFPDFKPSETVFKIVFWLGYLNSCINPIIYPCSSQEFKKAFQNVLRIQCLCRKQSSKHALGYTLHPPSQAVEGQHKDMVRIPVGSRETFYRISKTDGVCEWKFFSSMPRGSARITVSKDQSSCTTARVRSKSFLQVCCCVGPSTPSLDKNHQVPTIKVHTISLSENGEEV
In words: biochemical. In kind it is binding. Here is the method:
These cell lines were prepared by transfecting the cloned cDNA or cloned genomic DNA or constructs containing both genomic DNA and cDNA encoding the human α-adrenoceptors as follows:
The construct involved ligating three partial overlapping fragments: a 5' 0.6 kb HincII genomic clone, a central 1.8 EcoRI hippocampal cDNA clone, and a 3' 0.6 Kb PstI genomic clone. The hippocampal cDNA fragment overlaps with the 5' and 3' genomic clones so that the HincII and PstI sites at the 5' and 3' ends of the cDNA clone, respectively, were utilized for ligation. This full-length clone was cloned into the KpnI site of the expression vector, using the 5' and 3' KpnI sites of the fragment, derived from vector (i.e., pBluescript) and 3'-untranslated sequences, respectively. Stable cell lines were obtained as described above.
Transfected cells from culture flasks were scraped into 5 ml of 5 mM Tris-HCl, 5 mM EDTA, pH 7.5, and lysed by sonication. The cell lysates were centrifuged at 1000 rpm. for 5 min at 4° C., and the supernatant was centrifuged at 30,000 ×g for 20 min at 4° C. The pellet was suspended in 50 mM Tris-HCl , 1 mM MgCl2, and 0.1% ascorbic acid at pH 7.5. […] The reaction was stopped by filtration through GF/B filters using a cell harvester.

The mark [1] stands for this setting: agonist, phosphoinositide accumulation, read-out: pEC50 α1A (converted).
[2] abbreviates: relative to reference full agonist (e.g., norepinephrine = unity).

For `COc1ccc(SC)c2c1C[C@@H]1[C@@H](C2)OCCN1C` (relative stereo) [SDZ NVI-085, (±)-trans-4-Methyl-6-methoxy-9-thiomethoxy-3,4,4a, 5,10,10a-hexahydro-2H-naphtho[2,3-b][1,4]oxazine], at human α1A adrenoceptor (setting [1]), the EC50 was > 100 µM. Besides, at human α1A adrenoceptor, the Emax amounted to 0%. At human α1C adrenoceptor (Table 3, agonists, read-out: pKi α1C (converted)), the Ki was 1.26 µM.
Turning to `CS(=O)(=O)Nc1c(O)ccc2c1CCCC2C1=NCCN1` (racemic) [Compound A-61603, (±)-N-[5-(4,5-Dihydro-1H-imidazol-2-yl)-2-hydroxy-5,6,7,8-tetra-hydronaphthalen-1-yl]methanesulfonamide], the EC50 on human α1A adrenoceptor (setting [1]) was 25.1 µM. Besides, the Emax on human α1A adrenoceptor (setting [2]) is 10%. The “stimulation of inositol phosphate production, α1A” value at human α1A adrenoceptor was “virtually inactive”.
For the compound `CN[C@@H](C)[C@H](O)c1ccccc1` [(-)-ephedrine], on human α1A adrenoceptor, the EC50 was 100 µM and the Emax turned out to be 10%. This compound showed a Ki on human α1C adrenoceptor of 25.1 µM.
As for `COc1ccccc1N1CCN(CCCNc2c(C)c(=O)n(C)c(=O)n2C)CC1` [Compound 5-MU], the Ki on human α1C adrenoceptor (Table 2, antagonists, versus 3H-prazosin, read-out: pKI (antagonist affinity, 3H-prazosin binding) hα1C (converted)) was 0.002 µM.
Regarding `CNC[C@H](O)c1cccc(O)c1` [(-)-phenylephrine], on human α1A adrenoceptor (setting [2]), the Emax was 70%.
In the case of `COc1cc2c(cc1OC)CN(c1cc(N)c3cc(OC)c(OC)cc3n1)CC2` [Abanoquil, 2-(6,7-Dimethoxy-3,4-dihydro-1H-isoquinolin-2-yl)-6,7-dimethoxyquinolin-4-ylamine hemifumarate hydrate], the “pKI (antagonist affinity, 3H-prazosin binding) hα1C” value on human α1C adrenoceptor (Table 2, antagonists, versus 3H-prazosin) turned out to be 10.4.
For the compound `COc1ccc(OC)c(C(O)CN)c1` (racemic) [ST-1059, (±)-2-Amino-1-(2, 5 dimethoxyphenyl) ethanol], at human α1A adrenoceptor, the EC50 is 1.58 µM and the Emax came to 10%. At human α1C adrenoceptor, this compound gave a Ki of 7.94 µM.
As for `C[C@H](N)[C@H](O)c1ccccc1` [(-)-norephedrine], on human α1A adrenoceptor, the EC50 was 15.8 µM and the Emax is 30%. At human α1C adrenoceptor, this compound showed a Ki of 15.8 µM.
`CNCCc1ccc(O)c(NS(C)(=O)=O)c1` [SK&F 102652]: on human α1A adrenoceptor, the Emax was 10% and the “stimulation of inositol phosphate production, α1A” value was “virtually inactive”.
